Test system: autologous responder T cells
Assay: Regulatory T cell activity after co-culture with DC(BiP): responder T cell proliferation to anti-CD3
Format: cell-based, human
Method: FIG. 12: Co-culture with BiP-treated dendritic cells (DC) leads T cells to have regulatory function. After 4d pre-incubation with either autologous or allogeneic DC, or DC(BiP), T cells were washed and set up in autologous cultures with irradiated peripheral blood mononuclear cells (PBMC) and responder T cells (1:1:1 ratio) (105 cells each/well) in the presence or absence of anti-CD3 antibody (1/2000 dilution). […] (B) a representative experiment showing an autologous experiment using Δ counts per minute (Δcpm) (stimulated-unstimulated cpm) following stimulation with anti-CD3 antibody to irradiated PBMC (irMC) or responder T cells (rT) alone and cultures with irMC+rT+T cells prestimulated (pT) by autologous DC populations as indicated; (C) mean ±standard deviation of unstimulated and stimulated cultures from a representative experiment where autologous irMC+rT+pT, previously cocultured with allogeneic DC populations as indicated, were present in ratio 1:1:1.
Purified T cells (>95% T cells) (2.10^6/well) either autologous or allogeneic were cultured in the absence or presence of irradiated DC populations in 24-well flat-bottomed plates at a IDC: 10 T cell ratio for 4 days. […]

BiP: 78 kD endoplasmic reticulum chaperone protein as disclosed in WO 00/21995; recombinant human protein
% inhibition of responder T cell proliferation to anti-CD3 antibody (T cells from 4d co-culture with allogeneic DC(BiP), n=3): 28.7±13.3 % inhibition | % inhibition of responder T cell proliferation to anti-CD3 antibody (T cells from 4d co-culture with autologous DC(BiP), n=5): 63.8±13.7 % inhibition

Reference: US20080155704A1, “Methods and Compositions for Determining in vivo Activity of BiP” (King's College London, priority 2006, published 2008)
